The source of these data is paper PMC9866482, “Determination of Chemical Composition and Investigation of Biological Activities of Ocimum basilicum L” (Molecules, 2023).

Each structure is given as a SMILES string. Marks after values point to notes of the source that are not given here.

Assay [1] relates to Proteus mirabilis ATCC 25933. Nature of the assay: Disc diffusion assay. It is filed as cell-based. As to conditions: ATCC25933, disc with 10 µL EO or aqueous extract, chloramphenicol 30 µg, read-out: Diameters of the inhibition zones. The protocol: (§1) The bacterial strains were revived by inoculation in Mueller–Hinton Agar (MHA) followed by incubation at 37 °C for 24 h. A bacterial suspension (0.5 McFarland) was prepared in sterile physiologic water (0.9% NaCl) from the obtained culture. The yeast strain was inoculated in Sabouraud’s agar (SA) and incubated at 25 °C for 48 h, then a yeast suspension (0.5 McFarland) was prepared in sterile physiological water. The Fungi strains were sub-cultured in SA and incubated at 25 °C for 5 days. Afterward, the culture was washed with 2 mL of sterile physiological water. The suspension was transferred to a sterile assay tube, where the heavy particles were allowed to settle for 5 min. The upper homogeneous suspensions were transferred to a new sterile tube and adjusted microscopically to about 10^4 CFU/mL.
(§2) Briefly, the culture suspension was inoculated by swab on optimal culture media (MHA for bacteria and SA for yeasts and fungi). Afterward, six mm diameter sterile paper discs soaked in 10 µL of EO (mixed with 5% dimethyl sulfoxide (DMSO)) or aqueous extract were deposited on each plate. Chloramphenicol (30 µg) was used as a positive control for bacteria, and nystatin (100 I.U.) was used as a positive control for yeasts and fungi, while DMSO (10 µL; 5%) as a negative control. Incubation was then conducted at 37 °C for 24 h, 25 °C for 48 h, and 25 °C for 72 h for bacteria, yeasts, and fungi, respectively. After incubation, the diameters of the inhibition zones were measured in millimeters, and the results were expressed as the mean ± standard deviation (SD) of three replicates.
Background: A growth-free zone around the sample is the usual read-out of agar diffusion tests.

The subject of assay [2] is Salmonella enterica Typhimurium ATCC 700408. Nature of the assay: Disc diffusion assay. As to conditions: disc with 10 µL EO or aqueous extract, chloramphenicol 30 µg, read-out: Diameters of the inhibition zones. Format: cell-based. Here is the method: as §1, §2
The test system of assay [3] is Staphylococcus aureus ATCC 29213. Nature of the assay: Disc diffusion assay. Format: cell-based. Particulars: ATCC29213, disc with 10 µL EO or aqueous extract, chloramphenicol 30 µg, read-out: Diameters of the inhibition zones. Here is the method:
as §1, §2

For assay [4], the system named is Listeria monocytogenes ATCC 13932. Nature of the assay: Disc diffusion assay. Format: cell-based. As to conditions: ATCC13932, disc with 10 µL EO or aqueous extract, chloramphenicol 30 µg, read-out: Diameters of the inhibition zones. Here is the method:
as §1, §2

The test system of assay [5] is Escherichia coli ATCC 25922. Nature of the assay: Disc diffusion assay. It is filed as cell-based. As to conditions: ATCC25922, disc with 10 µL EO or aqueous extract, chloramphenicol 30 µg, read-out: Diameters of the inhibition zones. The protocol:
as §1, §2

Assay [6] deals with Bacillus subtilis ATCC 6633. Nature of the assay: Disc diffusion assay. It is filed as cell-based. As to conditions: disc with 10 µL EO or aqueous extract, chloramphenicol 30 µg. Here is the method: as §1, §2
Assay [7] deals with Proteus mirabilis ATCC 25933. Nature of the assay: MIC and MBC by microdilution. Format: cell-based. As to conditions: ATCC25933, head does not say MIC or MBC, read-out: Controls (MIC of positive control). Here is the method:
(§3) The bacterial strains were revived by inoculation in Mueller–Hinton Agar (MHA) followed by incubation at 37 °C for 24 h. A bacterial suspension (0.5 McFarland) was prepared in sterile physiologic water (0.9% NaCl) from the obtained culture. The yeast strain was inoculated in Sabouraud’s agar (SA) and incubated at 25 °C for 48 h, then a yeast suspension (0.5 McFarland) was prepared in sterile physiological water. The Fungi strains were sub-cultured in SA and incubated at 25 °C for 5 days. Afterward, the culture was washed with 2 mL of sterile physiological water. The suspension was transferred to a sterile assay tube, where the heavy particles were allowed to settle for 5 min. The upper homogeneous suspensions were transferred to a new sterile tube and adjusted microscopically to about 10^4 CFU/mL. […] The minimum inhibitory concentration (MIC) is defined as the lowest concentration of EO or extract that can inhibit the growth of microorganisms. […] Mueller–Hinton broth (MHB) (Biokar, Beauvais, France) was used for bacteria, whereas Sabouraud broth (Biokar, Beauvais, France) was employed for yeast. The incubation was carried out at 37 °C for 24 h for the bacteria and at 25 °C for 48 h for the yeasts. However, MIC determination for fungi was carried out by the gradient plate method according to the protocol previously described. Chloramphenicol was used as a positive control for bacteria, while nystatin was used for yeasts and fungi. Minimum bactericidal concentration (MBC) corresponds to the lowest EO or extract concentration that can kill the microorganism. The same microdilution experiment used in determining the MIC was used.
On the technique in general: Broth dilution looks for growth in wells or tubes with falling amounts of substance.

Assay [8] deals with Salmonella enterica Typhimurium ATCC 700408. Nature of the assay: MIC and MBC by microdilution. Format: cell-based. As to conditions: head does not say MIC or MBC, read-out: Controls (MIC of positive control). Here is the method: as §3
Assay [9] concerns Staphylococcus aureus ATCC 29213. Nature of the assay: MIC and MBC by microdilution. Particulars: ATCC29213, head does not say MIC or MBC, read-out: Controls (MIC of positive control). It is filed as cell-based. The protocol:
as §3

In assay [10] the test system is Listeria monocytogenes ATCC 13932. Nature of the assay: MIC and MBC by microdilution. It is filed as cell-based. Particulars: ATCC13932, head does not say MIC or MBC, read-out: Controls (MIC of positive control). Here is the method: as §3
Assay [11] relates to Escherichia coli ATCC 25922. Nature of the assay: MIC and MBC by microdilution. It is filed as cell-based. As to conditions: ATCC25922, head does not say MIC or MBC, method names the control for MIC, read-out: Controls (MIC of positive control). Here is the method: as §3
The test system of assay [12] is Bacillus subtilis ATCC 6633. Nature of the assay: MIC and MBC by microdilution. Format: cell-based. As to conditions: ATCC6633, head does not say MIC or MBC, read-out: Controls (MIC of positive control). Here is the method:
as §3

The nature of another assay: ABTS antioxidant assay. Particulars: mean of triplicates ± SD.
A short description of assay [13]: Ferric reducing antioxidant power (FRAP) assay. Particulars: mean of triplicates ± SD.
On the set-up of assay [14]: method as in PMID 35926753. Particulars: LPS-treated rats, oral dose 500 mg/60 kg b.w. ref 109; cited from earlier work.
The target of the next assay is tyrosinase (Agaricus bisporus, UniProt C7FF04). As to conditions: basil EOs from different cultivars, arbutin as positive control ref 111; cited from earlier work.
Sequence of tyrosinase (C7FF04 1-392): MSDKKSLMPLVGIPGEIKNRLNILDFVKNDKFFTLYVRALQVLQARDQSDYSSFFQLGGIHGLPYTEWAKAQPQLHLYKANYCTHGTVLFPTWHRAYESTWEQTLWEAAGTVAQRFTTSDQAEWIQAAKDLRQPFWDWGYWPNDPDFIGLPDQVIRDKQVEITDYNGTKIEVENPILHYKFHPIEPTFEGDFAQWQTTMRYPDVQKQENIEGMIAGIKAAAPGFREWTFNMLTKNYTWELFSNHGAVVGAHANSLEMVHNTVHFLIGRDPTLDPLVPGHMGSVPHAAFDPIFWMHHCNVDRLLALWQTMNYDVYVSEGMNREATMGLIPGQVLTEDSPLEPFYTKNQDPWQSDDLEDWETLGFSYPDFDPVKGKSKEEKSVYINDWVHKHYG
The test system of assay [15] is Trichophyton rubrum. Nature of the assay: MIC by gradient plate method, MBC. It is filed as cell-based. As to conditions: head does not say MIC or MBC. The protocol:
as §3, with “Chloramphenicol was used as a positive control for bacteria, while nystatin was used for yeasts and fungi. Minimum bactericidal concentration (MBC) corresponds to the lowest EO or extract concentration that can kill the microorganism. The same microdilution experiment used in determining the MIC was used.” left out

Assay [16] concerns Aspergillus niger. Nature of the assay: MIC by gradient plate method, MBC. Format: cell-based. As to conditions: head does not say MIC or MBC. The protocol: as §3, with “Chloramphenicol was used as a positive control for bacteria, while nystatin was used for yeasts and fungi. Minimum bactericidal concentration (MBC) corresponds to the lowest EO or extract concentration that can kill the microorganism. The same microdilution experiment used in determining the MIC was used.” left out

The subject of assay [17] is Trichophyton rubrum. Nature of the assay: Disc diffusion assay. Format: cell-based. As to conditions: disc with 10 µL EO or aqueous extract, nystatin 100 I.U. Here is the method: as §1, §2
The subject of assay [18] is Candida albicans. Nature of the assay: Disc diffusion assay. Format: cell-based. As to conditions: disc with 10 µL EO or aqueous extract, nystatin 100 I.U. The protocol:
as §1, §2

Assay [19] concerns Aspergillus niger. Nature of the assay: Disc diffusion assay. It is filed as cell-based. As to conditions: disc with 10 µL EO or aqueous extract, nystatin 100 I.U. The protocol: as §1, §2
For assay [20], the system named is Candida albicans. Nature of the assay: MIC and MBC by microdilution (yeast). Format: cell-based. As to conditions: head does not say MIC or MBC. Here is the method:
as §3, with “Chloramphenicol was used as a positive control for bacteria, while nystatin was used for yeasts and fungi. Minimum bactericidal concentration (MBC) corresponds to the lowest EO or extract concentration that can kill the microorganism. The same microdilution experiment used in determining the MIC was used.” left out

By MIC is commonly meant the lowest concentration that inhibits growth of the organism.

On to `O=C(N[C@H](CO)[C@H](O)c1ccc([N+](=O)[O-])cc1)C(Cl)Cl` [Chloramphenicol], for which the zone of inhibition at 30 µg/disc in assay [1] is 22.2 ± 0.15 mm; in assay [2], 13.5 ± 0.15 mm; in assay [3], 25 ± 0.25 mm; in assay [4] it was 27.9 ± 0.15 mm; in assay [5] it was 21.9 ± 0.2 mm; in [6] (Bacillus subtilis, ATCC6633, Bacillus subtilis ATCC 6633, read-out: Diameters of the inhibition zones), 15.7 mm. The “Diameters of the inhibition zones” value in assay [6] (Bacillus subtilis ATCC 6633) is 15.5 ± 0.15 mm. For the same molecule, the MIC was 4 µg/mL in assay [7]; 64 µg/mL in [8]; 4 µg/mL in assay [9]; 2 µg/mL in assay [10]; 4 µg/mL in assay [11]; 32 µg/mL in assay [12].

Regarding `Cc1c(C)c2c(c(C)c1O)CCC(C)(C(=O)O)O2` (stereo not drawn) [Trolox], the “IC50 ABTS” value in “ABTS antioxidant assay” is 9.33 ± 0.07 ^c mg TEs/g. Moreover, in assay [13], the “IC50 FRAP” value is on record as 8.52 ± 0.17 ^c mg TEs/g.

Take `O=C(O)c1ccccc1` [benzoic acid]: in assay [14], the “Level of IL-1β” value is on record as 2.32 ± 0.28 × 10^3 pg/mL and the “Level of tumor necrosis factor-α (TNF-α)” value is recorded as 5.70 ± 1.04 × 10^3 pg/mL.

For the molecule `OC[C@H]1O[C@@H](Oc2ccc(O)cc2)[C@H](O)[C@@H](O)[C@@H]1O` [arbutin], on tyrosinase, the Tyrosinase inhibitory activity is 81.5 ± 2.6%.

For `C[C@@H]1[C@H](O)[C@@H](C)/C=C/C=C/CC/C=C/C=C/C=C/C=C/C(O[C@H]2O[C@H](C)[C@@H](O)[C@H](N)[C@@H]2O)CC2O[C@](O)(CC(O)C(O)CCC(O)CC(O)CC(O)CC(=O)O[C@H]1C)CC(O)C2C(=O)O` (stereo partly drawn) [Nystatin], the “Controls (MIC of positive control)” value stood at 16 µg/mL with Trichophyton rubrum [15], 16 µg/mL in the assay on Aspergillus niger [16] and 4 µg/mL with Candida albicans [20]. The “Diameters of the inhibition zones” value in the assay on Trichophyton rubrum [17] is reported as 24.9 ± 0.26 mm; with Candida albicans [18], 29.7 ± 0.20 mm; with Aspergillus niger [19] it was 26.4 ± 0.10 mm.
